Assay results taken from PubChem BioAssay AID330 (DTP/NCI, 2004).
Several values for one entry are separate records, joined by “and”; a condition that tells them apart may be missing. Identical values can stand only once. Inconclusive results and toxic doses are left out.

System: P388 leukemia ip, CD2F1 mice, survival T/C
Experiment: NCI In Vivo Anticancer Drug Screen. Data for tumor model P388 Leukemia (intraperitoneal) in CD2F1 (CDF1) mice
Conditions: endpoint: median survival time, higher = longer survival
Summary of the method: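 Mice carrying the transplanted tumor received test compound or vehicle. Survival was recorded in each group, and the value is the treated-group measurement divided by that of the vehicle-treated control group.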

[1] = dose: 50.0 mg/kg/injection, schedule: Q01DX009 (ip), vehicle: saline with Tween-80
[2] = dose: 60.0 mg/kg/injection, schedule: Q01DX005 (ip), vehicle: saline with Tween-80
[3] = dose: 100.0 mg/kg/injection, schedule: Q01DX009 (ip), vehicle: saline with Tween-80

CC(C)NC(=O)OCc1c(COC(=O)NC(C)C)c(-c2ccc(Cl)c(Cl)c2)n2c1CCC2
T/C (dose: 0.58 mg/kg/injection, schedule: Q01DX009 (ip), vehicle: saline with Tween-80): 112 % of control
T/C (dose: 1.17 mg/kg/injection, schedule: Q01DX009 (ip), vehicle: saline with Tween-80): 120 % of control
T/C (dose: 1.5 mg/kg/injection, schedule: Q01DX001 (ip), vehicle: other): 109 % of control
T/C (dose: 1.5 mg/kg/injection, schedule: Q01DX001 (iv), vehicle: other): 102 % of control
T/C (dose: 1.5 mg/kg/injection, schedule: Q01DX005 (ip), vehicle: other): 122 % of control
T/C (dose: 1.5 mg/kg/injection, schedule: Q01DX005 (iv), vehicle: other): 107 % of control
T/C (dose: 1.5 mg/kg/injection, schedule: Q01DX005 (oral), vehicle: other): 98 % of control
T/C (dose: 1.5 mg/kg/injection, schedule: Q01DX009 (oral), vehicle: other): 100 % of control
T/C (dose: 1.56 mg/kg/injection, schedule: Q01DX009 (ip), vehicle: distilled water + Tween-80): 122 % of control
T/C (dose: 2.34 mg/kg/injection, schedule: Q01DX009 (ip), vehicle: other): 151 % of control
T/C (dose: 2.34 mg/kg/injection, schedule: Q01DX009 (ip), vehicle: saline with Tween-80): 151 % of control
T/C (dose: 3.0 mg/kg/injection, schedule: Q01DX001 (ip), vehicle: other): 116 % of control
T/C (dose: 3.0 mg/kg/injection, schedule: Q01DX001 (iv), vehicle: other): 100 % of control
T/C (dose: 3.0 mg/kg/injection, schedule: Q01DX001 (oral), vehicle: other): 98 % of control
T/C (dose: 3.0 mg/kg/injection, schedule: Q01DX005 (iv), vehicle: other): 108 % of control
T/C (dose: 3.0 mg/kg/injection, schedule: Q01DX005 (oral), vehicle: other): 100 % of control
T/C (dose: 3.0 mg/kg/injection, schedule: Q01DX009 (oral), vehicle: other): 100 % of control
T/C (dose: 3.13 mg/kg/injection, schedule: Q01DX009 (ip), vehicle: distilled water + Tween-80): 117 % of control
T/C (dose: 4.69 mg/kg/injection, schedule: Q01DX009 (ip), vehicle: other): 154 % of control
T/C (dose: 4.69 mg/kg/injection, schedule: Q01DX009 (ip), vehicle: saline with Tween-80): 150 % of control and 153 % of control
T/C (dose: 6.0 mg/kg/injection, schedule: Q01DX001 (iv), vehicle: other): 104 % of control
T/C (dose: 6.0 mg/kg/injection, schedule: Q01DX001 (oral), vehicle: other): 99 % of control
T/C (dose: 6.0 mg/kg/injection, schedule: Q01DX005 (iv), vehicle: other): 114 % of control
T/C (dose: 6.0 mg/kg/injection, schedule: Q01DX005 (oral), vehicle: other): 98 % of control
T/C (dose: 6.0 mg/kg/injection, schedule: Q01DX009 (ip), vehicle: other): 152 % of control
T/C (dose: 6.0 mg/kg/injection, schedule: Q01DX009 (oral), vehicle: other): 100 % of control
T/C (dose: 6.25 mg/kg/injection, schedule: Q01DX005 (ip), vehicle: Klucel (hydroxypropylcellulose) (HPC)): 164 % of control and 168 % of control
T/C (dose: 6.25 mg/kg/injection, schedule: Q01DX005 (ip), vehicle: other): 164 % of control
T/C (dose: 6.25 mg/kg/injection, schedule: Q01DX005 (ip), vehicle: saline with Tween-80): 151 % of control
T/C (dose: 6.25 mg/kg/injection, schedule: Q01DX009 (ip), vehicle: other): 155 % of control and 160 % of control
T/C (dose: 6.25 mg/kg/injection, schedule: Q01DX009 (ip), vehicle: saline with Tween-80): 158 % of control
T/C (dose: 6.25 mg/kg/injection, schedule: Q01DX009 (oral), vehicle: distilled water + Tween-80): 97 % of control
T/C (dose: 7.5 mg/kg/injection, schedule: Q01DX005 (ip), vehicle: saline with Tween-80): 118 % of control
T/C (dose: 9.38 mg/kg/injection, schedule: Q01DX009 (ip), vehicle: other): 154 % of control and 198 % of control
T/C (dose: 9.38 mg/kg/injection, schedule: Q01DX009 (ip), vehicle: saline with Tween-80): 157 % of control
T/C (dose: 12.0 mg/kg/injection, schedule: Q01DX001 (iv), vehicle: other): 113 % of control
T/C (dose: 12.0 mg/kg/injection, schedule: Q01DX001 (oral), vehicle: other): 100 % of control
T/C (dose: 12.0 mg/kg/injection, schedule: Q01DX005 (ip), vehicle: other): 153 % of control
T/C (dose: 12.0 mg/kg/injection, schedule: Q01DX005 (oral), vehicle: other): 100 % of control
T/C (dose: 12.0 mg/kg/injection, schedule: Q01DX009 (ip), vehicle: other): 169 % of control
T/C (dose: 12.0 mg/kg/injection, schedule: Q01DX009 (oral), vehicle: other): 102 % of control
T/C (dose: 12.5 mg/kg/injection, schedule: Q01DX005 (ip), vehicle: Klucel (hydroxypropylcellulose) (HPC)): 151 % of control and 160 % of control and 163 % of control
T/C (dose: 12.5 mg/kg/injection, schedule: Q01DX005 (ip), vehicle: other): 177 % of control
T/C (dose: 12.5 mg/kg/injection, schedule: Q01DX009 (ip), vehicle: other): 165 % of control and 167 % of control
T/C (dose: 12.5 mg/kg/injection, schedule: Q01DX009 (ip), vehicle: saline with Tween-80): 151 % of control
T/C (dose: 12.5 mg/kg/injection, schedule: Q01DX009 (oral), vehicle: distilled water + Tween-80): 103 % of control
T/C (dose: 18.75 mg/kg/injection, schedule: Q01DX009 (ip), vehicle: saline with Tween-80): 166 % of control and 167 % of control
T/C (dose: 24.0 mg/kg/injection, schedule: Q01DX001 (oral), vehicle: other): 100 % of control
T/C (dose: 24.0 mg/kg/injection, schedule: Q01DX005 (ip), vehicle: other): 178 % of control
T/C (dose: 24.0 mg/kg/injection, schedule: Q01DX005 (oral), vehicle: other): 102 % of control
T/C (dose: 24.0 mg/kg/injection, schedule: Q01DX009 (ip), vehicle: other): 184 % of control
T/C (dose: 24.0 mg/kg/injection, schedule: Q01DX009 (oral), vehicle: other): 102 % of control
T/C (dose: 25.0 mg/kg/injection, schedule: Q01DX005 (ip), vehicle: Klucel (hydroxypropylcellulose) (HPC)): 154 % of control and 168 % of control and 179 % of control
T/C (dose: 25.0 mg/kg/injection, schedule: Q01DX005 (ip), vehicle: other): 199 % of control
T/C (dose: 25.0 mg/kg/injection, schedule: Q01DX005 (ip), vehicle: saline with Tween-80): 162 % of control
T/C (dose: 25.0 mg/kg/injection, schedule: Q01DX009 (ip), vehicle: Klucel (hydroxypropylcellulose) (HPC)): 168 % of control
T/C (dose: 25.0 mg/kg/injection, schedule: Q01DX009 (ip), vehicle: other): 100 % of control
T/C (dose: 25.0 mg/kg/injection, schedule: Q01DX009 (ip), vehicle: saline with Tween-80): 166 % of control
T/C (dose: 25.0 mg/kg/injection, schedule: Q01DX009 (oral), vehicle: distilled water + Tween-80): 92 % of control
T/C (dose: 40.0 mg/kg/injection, schedule: Q01DX009 (ip), vehicle: Klucel (hydroxypropylcellulose) (HPC)): 155 % of control
T/C (dose: 48.0 mg/kg/injection, schedule: Q01DX001 (ip), vehicle: other): 168 % of control
T/C (dose: 48.0 mg/kg/injection, schedule: Q01DX001 (oral), vehicle: other): 100 % of control
T/C (dose: 48.0 mg/kg/injection, schedule: Q01DX005 (ip), vehicle: other): 174 % of control
T/C (dose: 48.0 mg/kg/injection, schedule: Q01DX005 (oral), vehicle: other): 107 % of control
T/C (dose: 48.0 mg/kg/injection, schedule: Q01DX009 (ip), vehicle: other): 106 % of control
T/C (dose: 48.0 mg/kg/injection, schedule: Q01DX009 (oral), vehicle: other): 119 % of control
T/C (dose: 50.0 mg/kg/injection, schedule: Q01DX005 (ip), vehicle: Klucel (hydroxypropylcellulose) (HPC)): 163 % of control and 205 % of control and 206 % of control
T/C (dose: 50.0 mg/kg/injection, schedule: Q01DX005 (ip), vehicle: other): 186 % of control
T/C (dose: 50.0 mg/kg/injection, schedule: Q01DX009 (ip), vehicle: Klucel (hydroxypropylcellulose) (HPC)): 239 % of control
T/C [1]: 187 % of control
T/C (dose: 50.0 mg/kg/injection, schedule: Q01DX009 (oral), vehicle: distilled water + Tween-80): 110 % of control
T/C [2]: 151 % of control
T/C (dose: 100.0 mg/kg/injection, schedule: Q01DX005 (ip), vehicle: saline with Tween-80): 90 % of control
T/C (dose: 100.0 mg/kg/injection, schedule: Q01DX009 (ip), vehicle: distilled water + Tween-80): 113 % of control
T/C [3]: 177 % of control
T/C (dose: 100.0 mg/kg/injection, schedule: Q01DX009 (oral), vehicle: distilled water + Tween-80): 97 % of control
T/C (dose: 200.0 mg/kg/injection, schedule: Q01DX005 (ip), vehicle: distilled water + Tween-80): 104 % of control
T/C (dose: 200.0 mg/kg/injection, schedule: Q01DX009 (oral), vehicle: distilled water + Tween-80): 111 % of control

Cc1ccc(C(C)C)c2c1CN(CCCN1COc3c(C(C)C)ccc(C)c3C1)CO2
T/C [2]: 91 % of control
T/C (dose: 120.0 mg/kg/injection, schedule: Q01DX005 (ip), vehicle: saline with Tween-80): 86 % of control

CSc1cc(SC)c(SC)nn1
T/C [1]: 106 % of control
T/C [3]: 109 % of control
T/C (dose: 200.0 mg/kg/injection, schedule: Q01DX009 (ip), vehicle: saline with Tween-80): 98 % of control
